Our source for the AC50 and max activity values is PubChem BioAssay AID1259334 (Broad Institute, 2017).

Active and inactive are the calls of the source. Cut-off read from the data, not from the text of the source: active = AC50 below about 11 µM. A value given as a limit tells only on which side of the number the result lay.

The term AC50 denotes the concentration giving half of the maximal activity seen.

The test system of the first assay is B cell line, TNFa signaling counterscreen reporter. Description: TNFa pathway inhibition counter-screen, B-lineage cells – dose response (AID 1259334).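 Note: cells stimulated with TNFa after compound preincubation.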
Settings: not given
(A counterscreen serves to expose hits that act by an unwanted route or on another target.)
For `CC12CCC3C(CCC4(O)CC(O)CCC34C=O)C1(O)CCC2C1=CC(=O)OC1` (centres undefined), the AC50 was 3.75 µM.

As to `CC(C)[C@H](N)C(=O)N[C@H]1CCC2C3CC=C4C[C@@H](O)CC[C@]4(C)C3CC[C@@]21C` (some centres undefined), the AC50 was 1.96 µM.

For the compound `CC1OC(OC2CC(O)C3(CO)C4C(O)CC5(C)C(C6=CC(=O)OC6)CCC5(O)C4CCC3(O)C2)C(O)C(O)C1O` (centres undefined), the AC50 was 0.109 µM.

`COc1ccc(S(=O)(=O)Nc2ccc3c(c2)C(=O)N([C@H](C)CO)C[C@@H](C)[C@@H](CN(C)Cc2ccc(C(F)(F)F)cc2)OCCCC[C@H](C)O3)cc1`: the AC50 was > 20 µM (inactive).

In the case of `COc1ccc(Cl)cc1NC(=O)Nc1cc(C)nc2ccccc12`, the AC50 is > 20 µM (inactive).

In the case of `O=C(/C=C/c1ccccc1)CC(O)(c1ccccc1)C(F)(F)C(F)F` (centres undefined), the AC50 was 5.06 µM.

For the compound `O=C1c2ccccc2C(=O)C1c1ccc2ccccc2n1`, the AC50 is 10.6 µM.

For the compound `O=C(NCCc1ccccc1)c1ccc2nccnc2c1`, the AC50 was 7.65 µM.

Consider `O=C1C=CC(=O)c2c(O)c(N3CCN(CCOCCO)CC3)c(Br)c(O)c21`, for which the AC50 is 1.33 µM.

For `C[C@@H]1CN([C@H](C)CO)C(=O)c2cc(NS(=O)(=O)c3cccs3)ccc2O[C@@H](C)CCCCO[C@H]1CN(C)Cc1ccc(Cl)c(Cl)c1`, the AC50 was > 20 µM (inactive).

Turning to `COc1ccc(S(=O)(=O)N(C)C[C@H]2Oc3ccc(NC(=O)Nc4ccc(C(F)(F)F)cc4)cc3C(=O)N([C@H](C)CO)C[C@H]2C)cc1`, the AC50 was 8.38 µM.

Consider `O=C(CCN1CCC(c2ccccc2)C1)c1ccc2c(c1)OCCO2` (centres undefined), for which the AC50 is 6.18 µM.

As to `O=C(CNC(=O)c1ccco1)Nc1ccc2c(c1)OCCO2`, the AC50 was > 20 µM (inactive).

`CC[C@@]1(O)C(=O)OCc2c1cc1n(c2=O)Cc2cc3ccccc3nc2-1`: the AC50 is 0.531 µM.

Take `COC(=O)c1ccccc1-c1c2ccc(=N)cc-2oc2cc(N)ccc12`: the AC50 was 4.57 µM.

With `C[C@@H]1CN([C@@H](C)CO)C(=O)c2ccccc2-c2ccccc2CO[C@H]1CN(C)Cc1ccccc1C(F)(F)F`, the AC50 is 7.43 µM.

Turning to `CCc1csc(N2[C@H](C#N)[C@H](c3ccc(C#Cc4ccc(F)cc4)cc3)[C@H]2CO)n1`, the AC50 was > 20 µM (inactive).

As for `N#C[C@@H]1[C@H](c2ccc(C#CC3CCCCC3)cc2)[C@@H](CO)N1C(=O)Nc1ccc(F)cc1`, the AC50 is > 20 µM (inactive).

With `CC(C)Cc1ccc(C(C)CC2=CCC(CN(C)C)C2=O)cc1` (centres undefined), the AC50 is 2.41 µM.

With `O=c1cc(-c2ccc(O)cc2)oc2ccc3ccccc3c12`, the AC50 is 1.67 µM.

In the case of `COCC(=O)N1[C@H](C#N)[C@H](c2ccc(C#Cc3ccccc3F)cc2)[C@H]1CO`, the half-maximal activity concentration (AC50) was 2.23 µM.

Test system in the next assay: not listed separately
The description is as above. The conditions noted are these: B cell line, TNFa signaling counterscreen reporter; at 0.0005 µM; stronger effect = lower value.
For the compound `CCN(CC(=O)Nc1ccc(NC(C)=O)cc1)C(=O)C1CCCN(C(=O)c2ccc(Cl)cc2)C1` (centres undefined), the max activity is -4.62% (inactive).

The same assay, now with this note: B cell line, TNFa signaling counterscreen reporter; at 0.0015 µM; stronger effect = lower value.
For the compound `Cc1ccc(-c2nn3c(C)nnc3c3ccccc23)cc1S(=O)(=O)NCc1ccccc1`, the max activity was 9.48% (inactive).

The same assay, now with this note: B cell line, TNFa signaling counterscreen reporter; at 0.0046 µM; stronger effect = lower value.
Regarding `C[C@H]1CCCCO[C@H](CN(C)Cc2ccc(C(F)(F)F)cc2)[C@@H](C)CN([C@@H](C)CO)C(=O)c2cc(NC(=O)Nc3cccc4ccccc34)ccc2O1`, the max activity is 7.77% (inactive).

Still in this assay, the particulars now being: B cell line, TNFa signaling counterscreen reporter; at 0.0135 µM; stronger effect = lower value.
Regarding `CC(=O)Nc1nc2nc(-c3ccccc3)cc(-c3ccccc3)n2n1`, the max activity is 11.6% (inactive).

For the compound `O=C1C=CC(=O)C2=C1C1c3ccccc3C2c2ccccc21`, the max activity is 13% (inactive).

In the case of `COc1cccc(S(=O)(=O)N(C)C[C@@H]2OCc3ccccc3-c3c(n(C)c4ccccc34)C(=O)N([C@H](C)CO)C[C@H]2C)c1`, the max activity was 14.6% (inactive).

For the compound `COc1ccc2c3c(n(C)c2c1)[C@H](CO)N(C(=O)Nc1ccc(F)cc1)CC31CCN(C(=O)Nc2ccc(F)cc2F)CC1`, the max activity is -5.85% (inactive).

As for `O=C(c1ccncc1)N1C[C@@H]2N[C@H](C1)C2c1ccc(/C=C/c2ccccc2)cc1` (some centres undefined), the max activity was 8.12% (inactive).

The assay is the same for the next values; noted with them: B cell line, TNFa signaling counterscreen reporter; at 0.042 µM; stronger effect = lower value.
Take `COc1ccc(CN2CC3(CN(S(=O)(=O)c4ccc(C)cc4)C3)c3c([nH]c4cc(OC)ccc34)[C@H]2CO)cc1`: the max activity is 14.8% (inactive).

For `COc1ccc(S(=O)(=O)N(C)C[C@H]2Oc3ccc(NC(=O)Nc4ccc(C(F)(F)F)cc4)cc3C(=O)N([C@@H](C)CO)C[C@H]2C)cc1`, the max activity was 15.2% (inactive).

As to `N#C[C@@H]1[C@@H](c2ccc(C#CC3CCCCC3)cc2)[C@H](CO)N1C(=O)Nc1ccc(F)cc1`, the max activity was 13.4% (inactive).

With `CC1=NNC(=O)C1Br` (centres undefined), the max activity is 52.7% (inactive).

The assay is the same for the next values; noted with them: B cell line, TNFa signaling counterscreen reporter; at 0.12 µM; stronger effect = lower value.
As for `Cc1cc(C)c2c(c1)SC1=NC(c3ccccc3)(C(F)(F)F)NC(=O)N12` (centres undefined), the max activity was -5.9% (inactive).

In the case of `Cc1ccc(C2(C)NC(=O)N(CC(=O)Nc3cccnc3Cl)C2=O)cc1` (centres undefined), the max activity is -17.9% (inactive).

With `CC12CN3CC(C)(CN(C1)C3c1ccc3c(c1)OCO3)C2=O` (centres undefined), the max activity is -17.3% (inactive).

Consider `C[C@@H]1CCCCO[C@@H](CN(C)CC2CCCCC2)[C@@H](C)CN([C@@H](C)CO)C(=O)c2cc(NC(=O)Nc3ccc(C(F)(F)F)cc3)ccc2O1`, for which the max activity is 11.4% (inactive).

Turning to `COc1cccc(NC(=O)N2CC(=O)N3[C@H](CO)[C@@H](c4ccc(C#CCC5CCCC5)cc4)[C@H]3C2)c1`, the max activity is 16.8% (inactive).

As to `C[C@]12CC[C@H](O)C[C@H]1CC[C@@H]1[C@@H]2CC[C@]2(C)[C@@H](c3ccc(=O)oc3)CC[C@]12O`, the max activity is 7.82% (inactive).

Consider `Cc1ccc(O)c(N=Nc2ccccc2)n1`, for which the max activity is 62% (inactive).

Still in this assay, the particulars now being: B cell line, TNFa signaling counterscreen reporter; at 0.135 µM; stronger effect = lower value.
As for `N#C[C@H]1[C@H](c2ccc(C#CC3CCCCC3)cc2)[C@@H](CO)N1C(=O)Nc1ccc(F)cc1`, the max activity was 9.41% (inactive).

Still in this assay, the particulars now being: B cell line, TNFa signaling counterscreen reporter; at 0.38 µM; stronger effect = lower value.
As to `c1ccc(CCSc2nccn2-c2ccccc2)cc1`, the max activity was 38% (inactive).

For `CC(C)NC(=O)N1CC(=O)N2[C@H](CO)[C@@H](c3ccc(/C=C/c4ccccc4)cc3)[C@H]2C1`, the max activity was -8.8% (inactive).

With `C[C@H]1CN([C@@H](C)CO)C(=O)c2ccccc2-c2ccccc2CO[C@H]1CN(C)C(=O)[C@@H](Cc1ccccc1)N(C)C`, the max activity was -6.07% (inactive).

As to `CC(=O)c1cc(-c2ccccc2)n(CC(=O)NCc2cccs2)c1C`, the max activity was 12.3% (inactive).

Staying with this assay, now noted: B cell line, TNFa signaling counterscreen reporter; at 1.1 µM; stronger effect = lower value.
On to `COc1ccc(NC(=O)O/N=C/c2c(C)nn(C(C)(C)C)c2C)cc1`, for which the max activity was 39.8% (inactive).

For the compound `C[C@H](CO)N1C[C@H](C)[C@H](CN(C)CC2CCCCC2)Oc2ccc(NC(=O)Nc3ccc(C(F)(F)F)cc3)cc2C1=O`, the max activity was 8.34% (inactive).

In the case of `Cc1ccc(-c2cc(C(=O)N3CC(C)OC(C)C3)c3ccccc3n2)o1` (centres undefined), the max activity was 10.3% (inactive).

As to `COc1ccc2c(c1)c1ncn(Cc3ccccn3)c(=O)c1n2C`, the max activity was -8.21% (inactive).

With `CC1=CC(=O)c2ccccc2C1=O`, the max activity was 21.6% (inactive).

Turning to `COc1cccc(S(=O)(=O)N(C)C[C@@H]2OCc3ccccc3-c3c(n(C)c4ccccc34)C(=O)N([C@H](C)CO)C[C@@H]2C)c1`, the max activity is 16.8% (inactive).

For the compound `Cc1ccc2nc(-c3cc(-c4ccccc4)no3)cn2c1`, the max activity is 49.4% (inactive).

With `COc1ccc2c3c([nH]c2c1)[C@H](CO)N(C(=O)Nc1cccc(F)c1)CC31CCN(S(=O)(=O)c2cccc(C)c2)CC1`, the max activity is 21.6% (inactive).

The assay is the same for the next values; noted with them: B cell line, TNFa signaling counterscreen reporter; at 3 µM; stronger effect = lower value.
As to `C[C@H]1CN([C@@H](C)CO)C(=O)c2c(c3ccccc3n2C)-c2ccccc2CO[C@@H]1CN(C)S(=O)(=O)c1ccc([N+](=O)[O-])cc1`, the max activity was -14.8% (inactive).

Still in this assay, the particulars now being: B cell line, TNFa signaling counterscreen reporter; at 3.5 µM; stronger effect = lower value.
On to `CC12CC[C@H]3[C@@H](CCC4(O)C[C@H](O)CCC34/C=N/NC(=O)Cc3ccccc3)C1(O)CCC2C1=CC(=O)OC1` (some centres undefined), for which the max activity is 5.28% (inactive).

On to `COCCn1c(C)cc(C(=O)COC(=O)c2ccc(Br)o2)c1C`, for which the max activity was -9.22% (inactive).

For `CCCC(C)Sc1nc2c([nH]1)c(=S)n(C)c(=O)n2C` (centres undefined), the max activity is 58.9% (inactive).

Consider `N#C[C@H]1[C@H](c2ccc(C#Cc3ccccc3F)cc2)[C@@H](CO)N1C(=O)C1CC1`, for which the max activity is -17.4% (inactive).

As to `N#C[C@H]1[C@@H](c2ccc(C#CC3CCCCC3)cc2)[C@H](CO)N1C(=O)Nc1ccc(F)cc1`, the max activity was -11.6% (inactive).

With `COC(=O)c1ccc2c(=O)[nH]c(COC(=O)c3c(-c4ccccc4)noc3C)nc2c1`, the max activity was 8.26% (inactive).

`N#Cc1ccc(-c2ccc3c(c2)[C@H]2[C@H](CCN2C(=O)C2CC2)[C@@H](CO)N3)cc1`: the max activity is -16.6% (inactive).

The same assay, now with this note: B cell line, TNFa signaling counterscreen reporter; at 10 µM; stronger effect = lower value.
On to `CCOC(=O)c1cc2c(ccn2C)n1Cc1ccc(C#N)cc1`, for which the max activity is 20.1% (inactive).

On to `CCCCc1nc2ccccc2[nH]1`, for which the max activity is 6.54% (inactive).

On to `O=C(c1ccc(-c2ccc([N+](=O)[O-])cc2)o1)N1CCCC(C(F)(F)F)C1` (centres undefined), for which the max activity was 46.5% (inactive).

Regarding `CCc1cnc(N2[C@H](C#N)[C@H](c3ccc(C#CCC4CCCC4)cc3)[C@@H]2CO)s1`, the max activity is 32.9% (inactive).

Consider `CCCNC(=O)N1[C@H](CO)[C@H](c2ccc(/C=C/c3ccccc3)cc2)[C@@H]1C#N`, for which the max activity was 45.4% (inactive).

As to `Cc1ccccc1S(=O)(=O)N1C[C@@H]2N[C@H](C1)C2c1ccc(-c2cccc(C#N)c2)cc1` (some centres undefined), the max activity was 22.9% (inactive).

For `c1cncc(C2=NCCC2)c1`, the max activity was 38% (inactive).

As for `CCc1cc2c(=O)c(-c3ccc4c(c3)OCCO4)coc2c(CN2CCCCC2C)c1O` (centres undefined), the max activity is 26.6% (inactive).
